According to ChEMBL document CHEMBL5291721, “A preclinical secondary pharmacology resource illuminates target-adverse drug reaction associations of marketed drugs” (Nat Commun, 2023):

Tests used:
[1] = molecular target: Beta-3 adrenergic receptor (Homo sapiens, UniProt P13945)
[2] = molecular target: Voltage-dependent N-type calcium channel subunit alpha-1B (Rattus norvegicus, UniProt Q02294); type: functional
Cannabinoid receptor 1 = Cannabinoid receptor 1 (Homo sapiens, UniProt P21554); type: functional
Chain of Cannabinoid receptor 1 (P21554 whole entry): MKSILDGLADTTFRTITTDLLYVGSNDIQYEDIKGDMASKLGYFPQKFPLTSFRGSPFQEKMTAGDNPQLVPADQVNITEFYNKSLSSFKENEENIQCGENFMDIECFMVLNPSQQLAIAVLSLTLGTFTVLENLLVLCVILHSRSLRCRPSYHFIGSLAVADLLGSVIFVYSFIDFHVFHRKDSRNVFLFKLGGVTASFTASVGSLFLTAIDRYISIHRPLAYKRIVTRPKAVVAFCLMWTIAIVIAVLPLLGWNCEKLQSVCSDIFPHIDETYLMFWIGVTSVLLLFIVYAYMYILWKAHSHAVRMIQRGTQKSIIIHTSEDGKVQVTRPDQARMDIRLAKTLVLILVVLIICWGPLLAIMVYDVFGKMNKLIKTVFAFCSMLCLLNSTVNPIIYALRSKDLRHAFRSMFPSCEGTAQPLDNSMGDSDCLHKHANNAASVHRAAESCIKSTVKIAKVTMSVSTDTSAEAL

Estrogen receptor beta = Estrogen receptor beta (Homo sapiens, UniProt Q92731)
Chain of Estrogen receptor beta (Q92731 whole entry): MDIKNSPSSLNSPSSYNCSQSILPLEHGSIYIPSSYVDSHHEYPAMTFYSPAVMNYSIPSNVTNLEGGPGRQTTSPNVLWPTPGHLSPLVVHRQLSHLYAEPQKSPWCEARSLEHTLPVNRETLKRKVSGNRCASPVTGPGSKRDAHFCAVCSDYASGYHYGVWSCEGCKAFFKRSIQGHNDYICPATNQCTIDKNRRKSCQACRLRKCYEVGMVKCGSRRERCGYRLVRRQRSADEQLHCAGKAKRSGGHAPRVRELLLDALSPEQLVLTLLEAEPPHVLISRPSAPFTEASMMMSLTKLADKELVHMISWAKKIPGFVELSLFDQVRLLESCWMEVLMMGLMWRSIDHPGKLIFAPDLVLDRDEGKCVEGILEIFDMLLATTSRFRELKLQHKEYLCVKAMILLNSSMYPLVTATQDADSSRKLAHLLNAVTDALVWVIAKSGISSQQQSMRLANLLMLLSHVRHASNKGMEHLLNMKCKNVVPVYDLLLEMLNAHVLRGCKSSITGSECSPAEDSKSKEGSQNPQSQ

[3] = molecular target: Gamma-aminobutyric acid type B receptor subunit 1 (Homo sapiens, UniProt Q9UBS5)
Chain of Gamma-aminobutyric acid type B receptor subunit 1 (Q9UBS5 whole entry): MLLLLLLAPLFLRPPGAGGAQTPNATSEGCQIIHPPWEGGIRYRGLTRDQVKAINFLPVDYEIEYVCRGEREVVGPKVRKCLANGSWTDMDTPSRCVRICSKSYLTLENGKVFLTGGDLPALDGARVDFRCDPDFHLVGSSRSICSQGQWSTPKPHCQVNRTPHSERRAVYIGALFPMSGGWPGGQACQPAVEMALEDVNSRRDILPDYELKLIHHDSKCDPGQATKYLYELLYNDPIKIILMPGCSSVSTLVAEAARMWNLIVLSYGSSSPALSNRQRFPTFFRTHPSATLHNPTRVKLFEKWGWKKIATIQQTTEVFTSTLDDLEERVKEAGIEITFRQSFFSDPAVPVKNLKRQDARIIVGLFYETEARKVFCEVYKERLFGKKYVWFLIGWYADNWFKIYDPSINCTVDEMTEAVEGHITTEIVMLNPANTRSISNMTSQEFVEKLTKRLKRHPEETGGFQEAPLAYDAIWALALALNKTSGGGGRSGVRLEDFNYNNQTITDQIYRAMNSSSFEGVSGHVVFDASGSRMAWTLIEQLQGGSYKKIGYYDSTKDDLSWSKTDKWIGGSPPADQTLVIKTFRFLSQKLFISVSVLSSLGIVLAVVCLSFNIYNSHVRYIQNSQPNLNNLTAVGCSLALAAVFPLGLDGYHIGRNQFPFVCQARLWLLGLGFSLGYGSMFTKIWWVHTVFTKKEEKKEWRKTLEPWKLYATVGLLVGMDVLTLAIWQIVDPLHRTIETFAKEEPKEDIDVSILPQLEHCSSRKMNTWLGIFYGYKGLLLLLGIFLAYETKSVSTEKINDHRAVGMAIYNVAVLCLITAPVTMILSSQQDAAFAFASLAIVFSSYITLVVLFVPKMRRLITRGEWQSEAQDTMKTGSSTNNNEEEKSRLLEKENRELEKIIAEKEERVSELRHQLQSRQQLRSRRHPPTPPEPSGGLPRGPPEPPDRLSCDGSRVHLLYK

Glucagon receptor = Glucagon receptor (Homo sapiens, UniProt P47871)
Chain of Glucagon receptor (P47871 whole entry): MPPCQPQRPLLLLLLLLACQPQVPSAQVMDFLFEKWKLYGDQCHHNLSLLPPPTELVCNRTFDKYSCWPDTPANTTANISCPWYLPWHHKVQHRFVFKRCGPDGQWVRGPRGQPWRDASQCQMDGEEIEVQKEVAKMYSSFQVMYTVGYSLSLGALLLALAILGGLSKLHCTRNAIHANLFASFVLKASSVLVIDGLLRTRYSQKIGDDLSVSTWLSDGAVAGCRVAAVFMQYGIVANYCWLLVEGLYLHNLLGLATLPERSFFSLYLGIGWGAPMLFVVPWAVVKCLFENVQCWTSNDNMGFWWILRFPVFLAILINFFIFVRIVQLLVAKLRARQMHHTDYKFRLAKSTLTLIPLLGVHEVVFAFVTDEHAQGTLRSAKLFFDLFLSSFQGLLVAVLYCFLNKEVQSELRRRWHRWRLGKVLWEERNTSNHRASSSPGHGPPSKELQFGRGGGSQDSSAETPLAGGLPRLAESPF

Histamine H2 receptor = Histamine H2 receptor (Homo sapiens, UniProt P25021)
Chain of Histamine H2 receptor (P25021 whole entry): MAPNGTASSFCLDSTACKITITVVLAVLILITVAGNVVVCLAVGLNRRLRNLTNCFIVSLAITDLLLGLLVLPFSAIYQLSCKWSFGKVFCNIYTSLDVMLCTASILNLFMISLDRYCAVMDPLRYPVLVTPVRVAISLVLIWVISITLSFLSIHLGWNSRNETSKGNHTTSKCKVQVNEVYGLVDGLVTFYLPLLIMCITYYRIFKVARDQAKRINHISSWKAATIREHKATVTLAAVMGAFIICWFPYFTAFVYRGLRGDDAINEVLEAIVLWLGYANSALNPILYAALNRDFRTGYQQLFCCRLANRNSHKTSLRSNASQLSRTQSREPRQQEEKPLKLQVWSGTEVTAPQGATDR

[4] = molecular target: 5-hydroxytryptamine receptor 7 (Homo sapiens, UniProt P34969)
Chain of 5-hydroxytryptamine receptor 7 (P34969 whole entry): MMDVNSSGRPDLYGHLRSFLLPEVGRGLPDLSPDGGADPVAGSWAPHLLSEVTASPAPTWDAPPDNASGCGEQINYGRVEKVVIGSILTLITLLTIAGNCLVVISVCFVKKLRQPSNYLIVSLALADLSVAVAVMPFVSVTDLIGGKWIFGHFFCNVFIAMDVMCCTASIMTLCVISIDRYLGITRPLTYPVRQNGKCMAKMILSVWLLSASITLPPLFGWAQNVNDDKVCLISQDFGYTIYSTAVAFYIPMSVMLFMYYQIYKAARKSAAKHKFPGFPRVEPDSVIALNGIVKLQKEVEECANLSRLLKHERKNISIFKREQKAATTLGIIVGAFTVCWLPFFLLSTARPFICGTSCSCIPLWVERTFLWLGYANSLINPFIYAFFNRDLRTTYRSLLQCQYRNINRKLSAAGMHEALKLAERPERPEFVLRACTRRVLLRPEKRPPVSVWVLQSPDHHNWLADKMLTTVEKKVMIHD

Substance-P receptor = Substance-P receptor (Homo sapiens, UniProt P25103)
Chain of Substance-P receptor (P25103 whole entry): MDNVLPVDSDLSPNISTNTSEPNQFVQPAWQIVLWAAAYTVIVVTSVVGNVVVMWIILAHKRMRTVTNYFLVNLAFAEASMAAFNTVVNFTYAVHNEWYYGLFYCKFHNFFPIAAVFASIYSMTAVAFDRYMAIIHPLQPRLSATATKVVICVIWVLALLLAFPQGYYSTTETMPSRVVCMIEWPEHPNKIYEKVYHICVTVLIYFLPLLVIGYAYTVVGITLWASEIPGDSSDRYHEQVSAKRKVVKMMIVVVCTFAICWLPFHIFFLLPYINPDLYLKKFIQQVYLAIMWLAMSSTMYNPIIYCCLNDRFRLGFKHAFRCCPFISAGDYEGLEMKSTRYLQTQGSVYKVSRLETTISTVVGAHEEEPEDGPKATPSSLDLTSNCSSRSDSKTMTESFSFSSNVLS

Androgen receptor = molecular target: T1, Androgen receptor (Rattus norvegicus, UniProt P15207); type: functional
T1 sequence (P15207 whole entry): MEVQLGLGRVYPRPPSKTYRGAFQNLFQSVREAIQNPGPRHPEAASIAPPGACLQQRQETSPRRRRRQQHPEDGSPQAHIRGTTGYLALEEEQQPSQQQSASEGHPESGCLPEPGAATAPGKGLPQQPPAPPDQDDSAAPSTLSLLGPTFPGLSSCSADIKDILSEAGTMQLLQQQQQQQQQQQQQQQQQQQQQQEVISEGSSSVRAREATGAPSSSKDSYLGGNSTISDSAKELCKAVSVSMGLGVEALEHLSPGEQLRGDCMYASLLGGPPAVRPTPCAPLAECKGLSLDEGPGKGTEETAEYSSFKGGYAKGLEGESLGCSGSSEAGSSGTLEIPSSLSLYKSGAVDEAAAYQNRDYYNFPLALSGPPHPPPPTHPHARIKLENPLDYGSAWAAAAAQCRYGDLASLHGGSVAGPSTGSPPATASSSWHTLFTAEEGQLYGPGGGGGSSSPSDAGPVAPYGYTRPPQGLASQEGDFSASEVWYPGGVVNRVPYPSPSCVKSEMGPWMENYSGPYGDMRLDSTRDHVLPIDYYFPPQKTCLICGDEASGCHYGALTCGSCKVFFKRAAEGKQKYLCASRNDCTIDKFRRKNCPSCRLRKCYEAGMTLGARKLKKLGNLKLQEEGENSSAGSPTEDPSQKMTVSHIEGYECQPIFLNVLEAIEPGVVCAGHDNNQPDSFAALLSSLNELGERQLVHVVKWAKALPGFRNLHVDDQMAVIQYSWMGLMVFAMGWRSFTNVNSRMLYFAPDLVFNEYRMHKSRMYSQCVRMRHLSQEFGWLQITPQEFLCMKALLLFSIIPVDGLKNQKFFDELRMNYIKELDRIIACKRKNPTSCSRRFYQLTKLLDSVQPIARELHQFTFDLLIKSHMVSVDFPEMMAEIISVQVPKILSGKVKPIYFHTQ

[5] = molecular target: T2, Gamma-aminobutyric acid receptor subunit alpha-1/alpha-2/beta-2/gamma-2 (Homo sapiens, UniProt P14867+P18507+P47869+P47870); type: functional, cell-based
[6] = molecular target: T2, Gamma-aminobutyric acid receptor subunit alpha-1/alpha-2/beta-2/gamma-2; type: functional, cell-based; remark: listed apart in the source
Histamine H1 receptor = Histamine H1 receptor (Homo sapiens, UniProt P35367); type: functional, cell-based
[7] = molecular target: T3, Peroxisome proliferator-activated receptor gamma (Homo sapiens, UniProt P37231); type: functional
T3 sequence (P37231 whole entry): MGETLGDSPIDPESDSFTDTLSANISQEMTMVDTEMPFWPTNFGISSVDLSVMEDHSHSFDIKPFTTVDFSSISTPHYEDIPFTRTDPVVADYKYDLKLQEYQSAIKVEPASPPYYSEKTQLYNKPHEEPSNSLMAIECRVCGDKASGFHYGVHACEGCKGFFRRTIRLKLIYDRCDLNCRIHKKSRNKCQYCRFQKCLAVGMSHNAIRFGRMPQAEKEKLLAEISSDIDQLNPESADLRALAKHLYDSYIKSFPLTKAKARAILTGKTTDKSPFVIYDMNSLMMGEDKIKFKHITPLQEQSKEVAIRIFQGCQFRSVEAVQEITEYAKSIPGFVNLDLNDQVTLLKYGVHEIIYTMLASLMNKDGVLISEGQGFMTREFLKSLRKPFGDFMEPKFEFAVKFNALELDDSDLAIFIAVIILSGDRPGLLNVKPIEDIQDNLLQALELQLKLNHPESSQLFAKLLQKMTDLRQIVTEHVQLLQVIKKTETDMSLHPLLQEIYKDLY

[8] = molecular target: T3, Peroxisome proliferator-activated receptor gamma; type: functional; remark: listed apart in the source
[9] = molecular target: 5-hydroxytryptamine receptor 2B (Homo sapiens, UniProt P41595)
Chain of 5-hydroxytryptamine receptor 2B (P41595 whole entry): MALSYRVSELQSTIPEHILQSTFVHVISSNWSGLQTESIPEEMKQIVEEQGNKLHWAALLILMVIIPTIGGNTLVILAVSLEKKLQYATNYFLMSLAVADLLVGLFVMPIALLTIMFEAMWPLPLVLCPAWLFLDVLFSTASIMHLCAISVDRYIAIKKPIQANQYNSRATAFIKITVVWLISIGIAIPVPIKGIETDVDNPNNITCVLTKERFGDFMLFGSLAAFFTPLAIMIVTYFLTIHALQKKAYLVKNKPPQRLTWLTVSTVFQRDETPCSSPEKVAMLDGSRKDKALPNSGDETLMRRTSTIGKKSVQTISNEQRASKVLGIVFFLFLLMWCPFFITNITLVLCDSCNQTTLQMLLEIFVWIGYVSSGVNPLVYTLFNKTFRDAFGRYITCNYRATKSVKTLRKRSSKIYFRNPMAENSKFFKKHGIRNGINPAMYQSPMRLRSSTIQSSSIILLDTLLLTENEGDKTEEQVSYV

[10] = molecular target: T4, Muscarinic acetylcholine receptor M2 (Homo sapiens, UniProt P08172)
T4 sequence (P08172 whole entry): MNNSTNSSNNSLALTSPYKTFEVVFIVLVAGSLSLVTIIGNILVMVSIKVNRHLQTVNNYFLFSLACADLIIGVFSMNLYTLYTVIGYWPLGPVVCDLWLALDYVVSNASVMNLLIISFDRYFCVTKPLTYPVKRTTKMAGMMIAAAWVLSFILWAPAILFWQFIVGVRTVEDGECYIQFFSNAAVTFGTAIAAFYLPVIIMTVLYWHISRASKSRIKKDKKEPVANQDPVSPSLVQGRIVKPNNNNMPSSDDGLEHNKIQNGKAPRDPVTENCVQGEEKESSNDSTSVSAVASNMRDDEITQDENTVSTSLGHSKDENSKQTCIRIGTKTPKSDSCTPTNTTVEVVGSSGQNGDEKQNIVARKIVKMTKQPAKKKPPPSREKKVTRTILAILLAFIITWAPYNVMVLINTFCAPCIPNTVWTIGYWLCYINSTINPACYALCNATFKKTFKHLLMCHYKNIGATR

D(1A) dopamine receptor = D(1A) dopamine receptor (Homo sapiens, UniProt P21728)
Also: assay procedure not described here.

Chain of Beta-3 adrenergic receptor (P13945 whole entry): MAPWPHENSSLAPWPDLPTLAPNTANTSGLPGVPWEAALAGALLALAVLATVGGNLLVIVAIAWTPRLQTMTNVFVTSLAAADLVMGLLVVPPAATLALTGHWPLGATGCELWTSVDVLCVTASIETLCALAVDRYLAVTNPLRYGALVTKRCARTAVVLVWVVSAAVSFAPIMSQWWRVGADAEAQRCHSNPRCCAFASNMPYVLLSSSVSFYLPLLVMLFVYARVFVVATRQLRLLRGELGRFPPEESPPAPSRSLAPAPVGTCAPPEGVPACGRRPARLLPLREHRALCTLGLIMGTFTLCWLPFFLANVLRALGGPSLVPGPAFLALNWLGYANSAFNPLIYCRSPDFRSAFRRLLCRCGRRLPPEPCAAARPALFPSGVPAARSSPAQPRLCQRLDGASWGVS

Row | Structure (SMILES) | AC50 [1] [µM] | AC50 [2] [µM] | AC50 (Cannabinoid receptor 1) [µM] | AC50 (Estrogen receptor beta) [µM] | AC50 [3] [µM] | AC50 (Glucagon receptor) [µM] | AC50 (Histamine H2 receptor) [µM] | AC50 [4] [µM] | AC50 (Substance-P receptor) [µM] | AC50 (Androgen receptor) [µM] | AC50 [5] [µM] | AC50 [6] [µM] | AC50 (Histamine H1 receptor) [µM] | AC50 [7] [µM] | AC50 [8] [µM] | AC50 [9] [µM] | AC50 [10] [µM] | AC50 (D(1A) dopamine receptor) [µM]
1 | NCCCC(O)(P(=O)(O)O)P(=O)(O)O [ALENDRONIC ACID] | > 30 | > 10 | > 10 | > 30 | > 10 | > 30 | > 10 | > 10 | > 10 |  |  |  |  |  |  |  |  | 
2 | CCN(CC)C(=O)C1CN2CCc3cc(OC)c(OC)cc3C2CC1OC(C)=O (configuration not stated) [BENZQUINAMIDE] |  |  |  |  |  |  |  |  |  | > 30 | > 30 | > 30 | > 30 | > 30 | > 30 |  |  | 
3 | CCCC(C)(COC(N)=O)COC(=O)NC(C)C (configuration not stated) [CARISOPRODOL] | > 30 | > 10 |  |  |  | > 30 | > 10 |  | > 10 |  |  |  | > 30 |  |  | > 10 | > 10 | > 10
4 | COC1=C(OC)C(=O)C(CCCCCCCCCCO)=C(C)C1=O [IDEBENONE] | > 30 | > 10 | > 10 | > 30 | > 10 | > 30 | > 10 | > 10 | > 10 |  |  |  |  |  |  | 8.99 | > 10 | > 10
5 | CC1(C)C(/C=C/C=C/C=C/C=C2\N(CCCCS(=O)(=O)O)c3ccc4ccccc4c3C2(C)C)=[N+](CCCCS(=O)(=O)[O-])c2ccc3ccccc3c21 [INDOCYANINE GREEN ACID FORM] |  |  |  |  |  |  |  |  |  | 6.8 | > 30 |  | > 30 |  |  |  |  | 
6 | CCOC(=O)Nc1ccc2c(c1)N(C(=O)CCN1CCOCC1)c1ccccc1S2 [MORICIZINE] |  |  |  |  |  |  |  |  |  | > 30 |  | > 30 | > 30 | > 30 | > 30 |  |  | 
7 | O=C1CN=C(c2ccccc2)c2cc(Cl)ccc2N1 [NORDAZEPAM] | > 30 | > 10 | 0.0006 | > 30 | > 10 | > 30 | > 10 | > 10 | > 10 |  |  |  |  |  |  | > 10 | > 10 | > 10
8 | CC(CCc1ccccc1)NC(C)C(O)c1ccc(O)cc1 (configuration not stated) [NYLIDRIN] | > 30 | > 10 | > 10 |  | > 10 | > 30 | > 10 | > 10 | > 10 |  |  |  |  |  |  | 0.733 | > 10 | > 10
9 | O=C1Nc2ccc(Cl)cc2C(c2ccccc2)=NC1O (configuration not stated) [OXAZEPAM] | > 30 | > 10 | > 10 | > 30 | > 10 | > 30 | > 10 | > 10 | > 10 |  |  |  | > 30 |  |  |  | > 10 | > 10
10 | CC(C)CC(N(C)C)C1(c2ccc(Cl)cc2)CCC1 (configuration not stated) [SIBUTRAMINE] | > 30 | > 10 |  | > 30 | > 10 | > 30 | > 10 |  | > 10 |  |  |  |  |  |  |  | > 10 | > 10
11 | [H]/N=C(/N)N[C@H]1[C@H](O)[C@@H](O)[C@H](O[C@@H]2O[C@@H](C)[C@](O)(C=O)[C@H]2O[C@@H]2O[C@@H](CO)[C@H](O)[C@@H](O)[C@@H]2NC)[C@@H](N/C(N)=N\[H])[C@@H]1O [STREPTOMYCIN] | > 30 | > 10 | > 10 | > 30 |  | > 30 | > 10 | > 10 | > 10 |  |  |  |  |  |  | > 10 |  | > 10
12 | N#C[C@@H]1CCCN1C(=O)CNC12CC3CC(CC(O)(C3)C1)C2 [VILDAGLIPTIN] |  | > 10 | > 10 |  | > 10 |  | > 10 | > 10 | > 10 |  |  |  |  |  |  | > 10 | > 10 | > 10
